From ChEMBL document CHEMBL1201862, “PubChem BioAssay data set” (2004)
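Method: 48-hour compound exposure of cells in 96-well plates, five concentrations, linear interpolation of endpoints. GI50 = concentration required for 50% inhibition of growth.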 Calls of active or inactive are those of the source. Cut-off read from the data, not from the text of the source: active = GI50 up to about 1.1 µM and inactive = higher.

Columns and labels:
Assay in all cases: NCI tumour cell line growth inhibition, 48 h
A549 = system: A549
CAKI-1 = system: CAKI-1
CCRF-CEM = system: CCRF-CEM
EKVX = system: EKVX
HCT-116 = system: HCT-116
HOP-92 = system: HOP-92
HT-29 = system: HT-29
KM12 = system: KM12
MOLT-4 = system: MOLT-4
Malme-3M = system: Malme-3M
NCI-H23 = system: NCI-H23
NCI-H460 = system: NCI-H460
OVCAR-3 = system: OVCAR-3
SK-MEL-5 = system: SK-MEL-5
SNB-75 = system: SNB-75
U-251 = system: U-251
UO-31 = system: UO-31
SW-620 = system: SW-620

| Structure (SMILES) | GI50 (A549) | GI50 (CAKI-1) | GI50 (CCRF-CEM) | GI50 (EKVX) | GI50 (HCT-116) | GI50 (HOP-92) | GI50 (HT-29) | GI50 (KM12) | GI50 (MOLT-4) | GI50 (Malme-3M) | GI50 (NCI-H23) | GI50 (NCI-H460) | GI50 (OVCAR-3) | GI50 (SK-MEL-5) | GI50 (SNB-75) | GI50 (U-251) | GI50 (UO-31) | GI50 (SW-620) |
| --- | --- | --- | --- | --- | --- | --- | --- | --- | --- | --- | --- | --- | --- | --- | --- | --- | --- | --- |
| CCOc1ccc2nc(NC(=O)C(=O)C(C#N)CC(C)(C)C=O)sc2c1 (stereo not given) | > 100 µM (inactive) | > 100 µM (inactive) | 26.9 µM (inactive) | > 100 µM (inactive) | > 100 µM (inactive) | > 100 µM (inactive) | > 100 µM (inactive) | > 100 µM (inactive) | > 100 µM (inactive) | > 100 µM (inactive) | > 100 µM (inactive) | > 100 µM (inactive) | > 100 µM (inactive) | > 100 µM (inactive) | > 100 µM (inactive) | > 100 µM (inactive) | > 100 µM (inactive) | – |
| O=S1(=O)CS(=O)(=O)OCCCCCO1 | > 100 µM (inactive) | > 100 µM (inactive) | > 100 µM (inactive) | > 100 µM (inactive) | > 100 µM (inactive) | > 100 µM (inactive) | > 100 µM (inactive) | > 100 µM (inactive) | – | > 100 µM (inactive) | > 100 µM (inactive) | > 100 µM (inactive) | – | – | > 100 µM (inactive) | > 100 µM (inactive) | > 100 µM (inactive) | > 100 µM (inactive) |
| C[N+]1(C)C/C(=C\c2ccc(O)cc2)C(=O)/C(=C/c2ccc(O)cc2)C1 | 37.5 µM (inactive) | > 100 µM (inactive) | 23.7 µM (inactive) | > 100 µM (inactive) | 34 µM (inactive) | > 100 µM (inactive) | > 100 µM (inactive) | 45.1 µM (inactive) | 47.4 µM (inactive) | > 100 µM (inactive) | – | 29 µM (inactive) | > 100 µM (inactive) | > 100 µM (inactive) | > 100 µM (inactive) | 49.5 µM (inactive) | > 100 µM (inactive) | > 100 µM (inactive) |
| Cc1c(C(=O)c2ccccc2C(=O)O)c2ccccc2n1C | > 100 µM (inactive) | > 100 µM (inactive) | > 100 µM (inactive) | > 100 µM (inactive) | > 100 µM (inactive) | – | > 100 µM (inactive) | > 100 µM (inactive) | > 100 µM (inactive) | > 100 µM (inactive) | > 100 µM (inactive) | > 100 µM (inactive) | > 100 µM (inactive) | > 100 µM (inactive) | > 100 µM (inactive) | > 100 µM (inactive) | > 100 µM (inactive) | > 100 µM (inactive) |
| CC(C)(C)C#COC(=O)c1ccccc1 | > 100 µM (inactive) | > 100 µM (inactive) | > 100 µM (inactive) | > 100 µM (inactive) | > 100 µM (inactive) | – | > 100 µM (inactive) | > 100 µM (inactive) | > 100 µM (inactive) | > 100 µM (inactive) | > 100 µM (inactive) | > 100 µM (inactive) | > 100 µM (inactive) | > 100 µM (inactive) | – | > 100 µM (inactive) | > 100 µM (inactive) | > 100 µM (inactive) |
| FC(F)(F)c1ccc2nc(NCc3ccccc3)c(-c3ccccc3)nc2c1 | 26.9 µM (inactive) | – | 37.2 µM (inactive) | 62.2 µM (inactive) | 29 µM (inactive) | 0.521 µM (active) | 36 µM (inactive) | – | 24.7 µM (inactive) | 25.4 µM (inactive) | 53.7 µM (inactive) | 41 µM (inactive) | 27.6 µM (inactive) | – | 46.2 µM (inactive) | 21 µM (inactive) | 25 µM (inactive) | 49.4 µM (inactive) |
| CCOC(=O)[C@H]1Nc2ccc(Cl)cc2[C@H]2CCC[C@@H]12 | 88.3 µM (inactive) | 86.9 µM (inactive) | – | 92.3 µM (inactive) | > 100 µM (inactive) | – | 36.7 µM (inactive) | > 100 µM (inactive) | > 100 µM (inactive) | > 100 µM (inactive) | > 100 µM (inactive) | > 100 µM (inactive) | 61.4 µM (inactive) | 71.6 µM (inactive) | 72.3 µM (inactive) | > 100 µM (inactive) | 99.8 µM (inactive) | > 100 µM (inactive) |
| CN(C)CC/C(=N\Nc1c(F)c(F)c(F)c(F)c1F)c1ccccc1 | 31.6 µM (inactive) | – | 21.2 µM (inactive) | > 100 µM (inactive) | 86.9 µM (inactive) | – | 35.8 µM (inactive) | 48.5 µM (inactive) | 19.2 µM (inactive) | 36.9 µM (inactive) | 77.1 µM (inactive) | 28 µM (inactive) | > 10 µM (inactive) | 14.2 µM (inactive) | 3.35 µM (inactive) | 42.4 µM (inactive) | 7.38 µM (inactive) | 74.8 µM (inactive) |
| C[C@H]1[C@H](C)CC[C@]2(C(=O)O)CCC3(COC(=O)/C=C/c4ccc(O)cc4)C(=CCC4[C@@]5(C)CC[C@H](O)C(C)(C)C5CC[C@]43C)[C@H]12 (stereo not given in full) | 2.61 µM (inactive) | 2.85 µM (inactive) | 3.84 µM (inactive) | 11 µM (inactive) | 3.62 µM (inactive) | – | 6.12 µM (inactive) | 3.47 µM (inactive) | 3.52 µM (inactive) | 19.3 µM (inactive) | – | 3.09 µM (inactive) | 4.8 µM (inactive) | 11 µM (inactive) | 10.2 µM (inactive) | 2.33 µM (inactive) | 4.82 µM (inactive) | 3.36 µM (inactive) |
